Experimental data reported in the supplement of paper PMC10627819.

What was measured:
S. aureus DSM 20231 [1] = assay: fitness (endpoint OD595 vs no drug) (fraction); higher = more growth
Method in brief: (§1)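 Fitness was measured as bacterial growth in 384-well plates inoculated at OD595 0.01 (30 µl, or 55 µl for S. pneumoniae). Media were TSB, LB Lennox or CY, at 37 °C. OD595 was read every 30 min for 14 h and background-subtracted against the first reading. Fitness is OD595 at the transition into stationary phase divided by the robust mean of no-drug control wells, capped at 1.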

S. aureus Newman [2] = assay: as above
Method in brief: as §1

S. aureus DSM 20231 [3] = assay: Bliss interaction score (quartile over a dose matrix) (fitness difference); higher = more antagonism (negative = synergy)
Method in brief: (§2)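 The Bliss score was calculated by subtracting the expected fitness, the product of single-drug values, from the observed fitness. OD595 at entry into stationary phase, over the plate's robust no-drug mean and capped at 1, served as the fitness readout. Single-drug values were inferred from combination data, and scores are summarised by quartiles across technical, biological and donor/recipient replicates.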

B. subtilis 168 = assay: as above
Method in brief: as §2

S. aureus Newman [4] = assay: as above
Method in brief: as §2

S. pneumoniae D39V = assay: as above
Method in brief: as §2
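Wherever Bliss interaction score (quartile over a dose matrix) is given: first quartile when negative (synergy) and third quartile when positive (antagonism).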

O=C(N[C@H](CO)[C@H](O)c1ccc([N+](=O)[O-])cc1)C(Cl)Cl [Chloramphenicol] + CN[C@@H]1[C@H](O)[C@H](NC)[C@H]2O[C@@]3(O)C(=O)C[C@@H](C)O[C@H]3O[C@@H]2[C@H]1O [Spectinomycin]
fitness
Conditions	first compound 0.75 µg/mL	first compound 1.5 µg/mL	first compound 3 µg/mL
S. aureus DSM 20231 [1], partner 4 µg/mL	0.556	0.539	0.12
S. aureus DSM 20231 [1], partner 8 µg/mL	0.665	0.511	0.117
S. aureus DSM 20231 [1], partner 16 µg/mL	0.657	0.376	0.15
S. aureus Newman [2], partner 4 µg/mL	0.725	0.441	0.207
S. aureus Newman [2], partner 8 µg/mL	0.722	0.42	0.172
S. aureus Newman [2], partner 16 µg/mL	–	–	0.0732

fitness, one replicate
Conditions	first compound 0.75 µg/mL	first compound 1.5 µg/mL	first compound 3 µg/mL
S. aureus DSM 20231 [1], partner 32 µg/mL	0.493	0.259	0.0743
S. aureus DSM 20231 [1], partner 64 µg/mL	0.0559	0.0436	0.0235
S. aureus Newman [2], partner 32 µg/mL	0.155	0.0442	0.0229
S. aureus Newman [2], partner 64 µg/mL	0.0289	0.0929	0.0827

Conditions	Bliss interaction score
B. subtilis 168	-0.0556
S. aureus DSM 20231 [3]	-0.0533
S. aureus Newman [4]	-0.107
S. pneumoniae D39V	-0.0595

CCCCCCCCCC(=O)N[C@H]1[C@H](Oc2c3cc4cc2Oc2ccc(cc2Cl)[C@@H](O[C@@H]2O[C@H](CO)[C@@H](O)[C@H](O)[C@H]2NC(C)=O)[C@@H]2NC(=O)[C@H](NC(=O)[C@@H]4NC(=O)[C@H]4NC(=O)[C@@H](Cc5ccc(c(Cl)c5)O3)NC(=O)[C@H](N)c3ccc(O)c(c3)Oc3cc(O)cc4c3)c3ccc(O)c(c3)-c3c(O[C@H]4O[C@H](CO)[C@@H](O)[C@H](O)[C@@H]4O)cc(O)cc3[C@@H](C(=O)O)NC2=O)O[C@H](CO)[C@@H](O)[C@@H]1O [Teicoplanin] + CN[C@H](CC(C)C)C(=O)N[C@H]1C(=O)N[C@@H](CC(N)=O)C(=O)N[C@H]2C(=O)N[C@H]3C(=O)N[C@H](C(=O)N[C@H](C(=O)O)c4cc(O)cc(O)c4-c4cc3ccc4O)[C@H](O)c3ccc(c(Cl)c3)Oc3cc2cc(c3O[C@@H]2O[C@H](CO)[C@@H](O)[C@H](O)[C@H]2O[C@H]2C[C@](C)(N)[C@H](O)[C@H](C)O2)Oc2ccc(cc2Cl)[C@H]1O [Vancomycin]
fitness, main component drawn
Conditions	first compound 0.1562 µg/mL	first compound 0.3125 µg/mL	first compound 0.625 µg/mL
S. aureus DSM 20231 [1], partner 0.1875 µg/mL	0.979	≥ 1	≥ 1
S. aureus DSM 20231 [1], partner 0.375 µg/mL	0.834	≥ 1	0.956
S. aureus DSM 20231 [1], partner 0.75 µg/mL	0.932	≥ 1	0.976
S. aureus Newman [2], partner 0.1875 µg/mL	≥ 1	≥ 1	0.914
S. aureus Newman [2], partner 0.375 µg/mL	≥ 1	≥ 1	0.881
S. aureus Newman [2], partner 0.75 µg/mL	0.992	0.949	0.816

fitness, S. aureus Newman [2], one replicate, main component drawn
Conditions	first compound 0.62 µg/mL	first compound 1.24 µg/mL	first compound 2.48 µg/mL
partner 0.1875 µg/mL	0.814	0.811	0.418
partner 0.375 µg/mL	0.733	0.757	0.402
partner 0.75 µg/mL	0.734	0.689	0.148

main component drawn
Conditions	Bliss interaction score
B. subtilis 168	-0.0512
S. aureus DSM 20231 [3]	-0.0576
S. aureus Newman [4]	0.0485
S. pneumoniae D39V	0.0981
